Measurements taken from US5356898A, “Substituted 4,6-di-tertiary-butyl 5-hydroxy-pyrimidines” (Warner-Lambert Company, priority 1993, dated 1994).

Assays:
cyclooxygenase = experiment: ARBC whole cell cyclooxygenase assay (PGF2α formation in RBL-1 cells, RIA); type: cell-based, rat; details: @ 10 μM; inhibition of PGF2α formation, RBL-1 cells stimulated with calcium ionophore A23187
Experimental: (§1) ARBL/ARBC Whole Cell 5-Lipoxygenase and Cyclooxygenase Assays The rat basophilic leukemia cell line (RBL-1) was obtained from the American Type Culture Collection (Rockville, Md.). Radioimmunoassay (RIA) kits of LTB4 and PGF2.sbsb.α were obtained from Amersham (Arlington Heights, Ill.) and Seragen (Boston, Mass.), respectively. RBL-1 cells are grown in suspension culture in Eagle's minimum essential medium supplemented with 12% fetal bovine serum at 37° C. in an incubator supplied with air-5% carbon dioxide. Cells are harvested by centrifugation. They are washed with cold phosphate buffered saline pH 7.4 (PBS; NaCl, 7.1 g; Na2 HPO4, 1.15 g; KH2 PO4, 0.2 g; and KCl, 0.2 g/l). Cells are finally suspended in PBS containing 1.0 mM calcium at a density of 2×10^6 cells/mi. Cells are incubated with and without test agent (in DMSO) (1% DMSO is without effect on arachidonic acid metabolism) for ten minutes at room temperature. Calcium ionophore A23187 (5 μM) is added and cells are incubated for seven minutes at 37° C. The reaction is stopped by chilling the tubes on ice for ten minutes. Cells are separated by centrifugation and the supernatant is stored at -20° Aliquots (100 μl) are analyzed for LTB4 and PGF2.sbsb.α using radioimmunoassay kits as provided by the supplier. […]

5-lipoxygenase = experiment: ARBL whole cell 5-lipoxygenase assay (LTB4 formation in RBL-1 cells, RIA); type: cell-based, rat; details: @ 10 μM; inhibition of LTB4 formation, RBL-1 cells stimulated with calcium ionophore A23187
Experimental: as §1

Row | Structure (SMILES) | ARBC (cyclooxygenase) [%] | ARBL (5-lipoxygenase) [%]
1 | CC(C)(C)c1nc(C#N)nc(C(C)(C)C)c1O [Example 19, 4,6-Bis.(1,1-dimethylethyl)-5-hydroxy-2-pyrimidine carbonitrile] | 45 | 70
2 | CSc1nnc(-c2nc(C(C)(C)C)c(O)c(C(C)(C)C)n2)s1 [Example 13, 5-[4,6-Bis(1,1-dimethylethyl)-5-hydroxy-2-pyrimidinyl]-2-thiomethoxy-1,3,4-3H-thiadiazole] | 85 | 93
